{"source": "patent US11147816B2", "about": "“Composition for inducing differentiation and protection of neural stem cells and method for inducing neuro-regeneration using the same composition” (GENUV Inc., priority 2016, dated 2021)", "key": {"[1]": {"system": "mouse embryonic neural stem cells", "assay": "Morphology analysis of NSC differentiation in mouse embryonic neural stem cells (Examples 1, 6)", "type": "cell-based", "procedure": "Neural stem cells were isolated from the brain of a day 14.5 mouse embryo, treated with 10 ng/ml human basic fibroblast growth factor (bFGF) (Peprotech, Princeton, NG, cat#.100-18B) and 20 ng/ml human epidermal growth factor (EGF) (Peprotech, cat#. AF-100-15) in a N2 culture medium, and cultured in suspension in a 25 cm2 flask (Nunc, Pittsburgh, Pa.) for 4 days. Formation of neurospheres was observed after 2 days.\nIn order to isolate single cells, 6-well plates were prepared the day before by treating the wells with 15 μg/ml poly-L-ornithine (Sigma, St. Louis, Mo., cat#.P2533) solution and incubating overnight at 37° C. for coating. The day of the single cell isolation, poly-L-ornithine solution was removed, the plates were washed with PBS three times, and 10 μg/ml fibronectin (Gibco, Waltham, Mass., cat#. 33016015) solution was added and incubated at 37° C. for 2 hours for coating.\nVarious concentrations of the compound of [Formula 1] […]"}, "[2]": {"system": "mouse embryonic neural stem cells", "assay": "Immunocytochemistry analysis, Tuj1 and DAPI staining (Example 3)", "type": "cell-based", "conditions": "10 nM, 4 days", "procedure": "Tuj1 (Neuron specific class III beta-tubulin) is a neuron specific marker protein, which was conjugated to rhodamine to show fluorescent red, while DAPI binds to the cell DNA and stains the cell nuclei fluorescent blue. […] The medium was removed and the cells were washed with PBS. After fixing with 10% formaldehyde (Sigma cat#. HT501128) at room temperature for 10 minutes, they were washed again with PBS. They were permeabilized with 0.2% Triton X-100 (Sigma, cat#. 93443) at room temperature for 15 minutes, washed with PBS, and incubated with 10% BSA (Sigma, cat#. A2153)+1% normal goat serum (Vector lab, Burlingame, Calif., cat#. S1000) at room temperature for 1 hour. […] The solution was removed, washed with PBS, and incubated at room temperature for 1 hour with the secondary antibody (rhodamine-conjugated antibody) diluted in 1% BSA+1% normal goat serum at a ratio of 1:200. Then, the cells were washed with PBS, incubated with 5 μg/ml DAPI (Sigma, cat#. D9542) for 5 minutes, washed with PBS again, and mounted on a slide glass for analysis with a fluorescent microscope."}, "Aβ(1-40) and Aβ(1-42)": {"system": "Aβ(1-40) and Aβ(1-42)", "assay": "ELISA of Aβ(1-40) and Aβ(1-42) in brain hemispheres (Example 13)", "type": "in vivo, mouse", "conditions": "orally daily for 28 days, vs vehicle", "procedure": "Using the ground powder of 5XFAD mouse brain hemispheres obtained in Example 12, the amount of Aβ(1-40) and Aβ(1-42) was quantified by ELISA (enzyme-linked immunosorbent assay). […] After measuring the protein concentration, dilution buffer was added to obtain 30˜50 μg of protein in 100 μl solution. 100 μl each of anti-Aβ(1-40) and Aβ(1-42) antibodies were added to the 96-well plates, incubated at room temperature for 2 hours, then removed and washed 4 times with wash buffer. 100 μl each of HRP-conjugated secondary antibodies was added and incubated at room temperature for 30 minutes. The solution was then removed and washed again 4 times with wash buffer. 100 μl of the […] was added to the wells, incubated in the dark for 30 minutes, and 100 μl of the stop solution added to terminate the reaction. Then, the chemiluminiscence reaction was measured at 450 nm with an ELISA plate reader. The absorbance was converted in reference to the standard concentration and the concentration of each protein was determined. The amount of Aβ(1-40) and Aβ(1-42) in reference to the total amount of protein (30˜50 μg) was calculated, and then the amount of Aβ(1-42) in reference to the amount of Aβ(1-40) was calculated."}, "5XFAD mouse [3]": {"system": "5XFAD mouse", "assay": "TUNEL assay, neuroprotective activity (Example 10)", "type": "in vivo", "conditions": "orally daily for 28 days, vs vehicle", "procedure": "The sagittal brain tissue slides described in Example 8 were rehydrated and stained with the TUNEL assay kit (Promega, Wis., USA, cat#. G3250). Specifically, the brain tissue slides were permeabilized with 20 μg/ml proteinase K solution for 10 minutes, incubated with equilibration buffer for 10 minutes, and then incubated with TdT solution at 37° C. for 1 hour. The staining of the somatosensory cortex and subiculum area, areas known to show significant cell death in 5XFAD mouse, were observed. TUNEL assay was also performed on the tissue slides of normal adult mouse brain (as control) to confirm that staining was properly done."}, "5XFAD mouse [4]": {"system": "5XFAD mouse", "assay": "Nissl, NeuN and DCX staining in the hippocampal dentate gyrus (Example 9-2)", "type": "in vivo", "conditions": "orally daily for 28 days", "procedure": "After placing in 0.1% cresyl violet (Sigma, cat#. C5042) solution at room temperature for 15 minutes, they were dehydrated by sequentially immersing in 80%, 90%, 100% alcohol, and xylene. Coverslips were put on the slides and the neurons examined.\nNeuN staining was performed by the same method as described in Example 8 as was DCX staining, but using anti-DCX antibodies (Santa Cruz, cat#. sc271390) instead of anti-NeuN antibodies."}, "[5]": {"system": "mouse embryonic neural stem cells", "assay": "qRT-PCR of relative mRNA expression of neuronal markers in mouse embryonic NSC (Examples 4-1, 4-2, 6)", "type": "cell-based", "conditions": "1 nM", "procedure": "Isopropanol (Ducsan, GyunggiDo, Korea, cat#. 67-63-0) was added and mixed for RNA isolation, then centrifuged again to remove the supernatant and obtain the pellet. The RNA pellet was resuspended in 75% ethanol (Ducsan, cat#. 64-17-15), centrifuged, and the supernatant removed. The pellet was then resuspended in sterilized triple distilled water to obtain the mRNA, incubated for 10 minutes at 55° C., and stored at −80° C.\nSterilized triple distilled water, […] oligo dT, and 1 mM dNTP were added to the RNA and incubated for 5 minutes at 65° C. This was followed by the addition of 5X First-strand buffer, 10 mM DTT, and M-MLV reverse transcriptase and incubated at 42° C. for 1 hour, then at 72° C. for 15 minutes, and at 4° C. for 30 minutes. The synthesized cDNA was stored at −20° C.\nThe term relative mRNA expression level signifies that in order to normalize each group's total RNA level, the mRNA expression level of each differentiation marker is divided by the expression level of GAPDH whose expression level is fairly constant across cells, and then the values of each test material are compared with those of the controls (undifferentiated NSC) in each group."}, "pERK": {"system": "pERK", "assay": "Western blotting of pERK in brain hemispheres (Example 12)", "conditions": "0.1 mg/kg and 1.0 mg/kg orally daily for 28 days, vs vehicle", "method": "The mouse was then anesthetized and perfused with PBS for the extraction of the brain. Of the brains extracted from 3 mice of each group, half of the brain tissue (hemispheres) was immediately stored in the deep freezer for western blotting and ELISA experiments to be performed later.\nThe powder was divided into 6 parts, put into new tubes, and placed back into the deep freezer. […] The powder was carefully suspended with a pipette in RIPA buffer, incubated on ice for 10 minutes, centrifuged at 13000 rpm, 4° C., and the supernatant was collected. […] The protein bands were detected with a photosensitive imaging system (FIG. 19a). In order to quantify the change in pERK expression, the expression levels of pERK and ERK were measured by densitometry, and the expression level of pERK was normalized against the expression level of ERK."}, "5XFAD mouse [6]": {"system": "5XFAD mouse", "assay": "NeuN immunohistochemical staining, number of neurons in the Alzheimer's disease mouse model (Example 8)", "method": "For the BrdU staining to be performed later, 50 mg/kg of BrdU (Sigma, cat#. B5002) was added to the daily dose for the last 5 days. The mouse was then anesthetized and perfused with PBS for the extraction of the brain. […] The other half of the hemispheres plus another 3 extracted mice brains per group were placed in 10% formalin solution at 4° C. for 1 day, which was then followed with the proceeding steps to allow good penetration of paraffin into the brain tissue. The brain tissues were immersed sequentially in 70%, 80%, 95%, 100% alcohol for 1 hour each for dehydration, then immersed in xylene 3 times for 1 hour each for clearing, and embedded in paraffin by placing in liquid paraffin 2 times for 1 hour each. After these procedures, the paraffin-embedded brain tissue (paraffin block) was cut into 5 μm sections, mounted on slides, and stored at room temperature. Prior to immunohistochemical staining, the tissues on the slides were rehydrated by sequentially immersing in xylene, 100%, 90%, 80%, 70%, 50% alcohol,and then water for 5 minutes each. […] The next day, the slides were incubated with anti-rabbit antibodies (Vector lab, cat#. PI-1000) at room temperature for 1 hour and then stained with DAB staining for the analysis of the neuronal distribution in the brain.\nFIG. 12b indicates the number of NeuN stained cells counted and represented as the percentage of the number of cells per unit area in the somatosensory cortex layer 5 region. Area samples were taken from 3 areas per mouse, 3 mice per group, so the number of cells counted was from a total of 9 areas.\nFIG. 13b indicates the number of NeuN stained cells counted and represented as the percentage of the number of cells per unit area in the motor cortex layer 5 region. Area samples were taken from 6 areas per mouse, 3 mice per group, so the number of cells counted was from a total of 18 areas.\nFIG. 14b indicates the number of NeuN stained cells counted and represented as the percentage of the number of cells per unit area in the dotted area of the hippocampal subiculum shown in FIG. 14a. Area samples were taken from 3 areas per mouse, 3 mice per group, so the number of cells counted was from a total of 9 areas."}, "[7]": {"conditions": "10 nM, 25 nM, 100 nM for 2 days"}, "[8]": {"conditions": "0.1 mg/kg and 1.0 mg/kg orally daily for 28 days, vs vehicle"}}}
{"smiles": "CC(=O)Nc1cccc(-n2c(=O)n(C3CC3)c(=O)c3c(Nc4ccc(I)cc4F)n(C)c(=O)c(C)c32)c1", "note": "[trametinib, N-(3-{3-cyclopropyl-5-[(2-fluoro-4-iodophenyl)amino]-6,8-dimethyl-2,4,7-trioxo-3,4,6,7-tetrahydropyrido[4,3-d]pyrimidin-1(2H)-yl}phenyl)acetamide]", "values": [{"measurement": "differentiation of NSC into neurons (morphology)", "setting": "[1]; 10 nM, 25 nM and 100 nM, added daily, 4 days", "result": "readily induced the differentiation of NSC into neurons"}, {"measurement": "NSC differentiation-inducing effect (morphology)", "setting": "[1]; 0.1 μM, day 2 of culture", "result": "excellent NSC differentiation-inducing effect"}, {"measurement": "concentration at which the differentiation-inducing effect is seen", "setting": "[1]; added daily, 4 days of culture", "result": "≥ 10", "unit": "nM"}, {"measurement": "neuron differentiation by Tuj1 staining", "setting": "[2]", "result": "showed increasingly active differentiation activity"}, {"measurement": "amount of Aβ(1-42)/Aβ(1-40)", "setting": "Aβ(1-40) and Aβ(1-42)", "result": "decreased"}, {"measurement": "number of TUNEL stained cells in the somatosensory cortex and subiculum", "setting": "5XFAD mouse [3]", "result": "significantly lower"}, {"measurement": "immature neurons stained by DCX in the dentate gyrus", "setting": "5XFAD mouse [4]", "result": "seen to be present"}, {"measurement": "number of cells with morphology of Type 2 or Type 3 cells in the subgranular zone of the dentate gyrus (Nissl, NeuN)", "setting": "5XFAD mouse [4]", "result": "increased considerably"}, {"measurement": "differentiation-inducing effect (Tuj1, TH mRNA)", "setting": "[5]", "result": "exerted its differentiation-inducing effect"}, {"measurement": "mRNA expression of GABAergic neuron marker Gad1", "setting": "[5]; [7]", "result": "increased with the increase in concentration of the trametinib added"}, {"measurement": "mRNA expression of cholinergic neuron marker ChAT", "setting": "[5]; [7]", "result": "increased with the increase in concentration of the trametinib added"}, {"measurement": "mRNA expression of dopaminergic neuron marker TH", "setting": "[5]; [7]", "result": "increased with the increase in concentration of the trametinib added"}, {"measurement": "mRNA expression of motor neuron marker Isl1", "setting": "[5]; [7]", "result": "increased with the increase in concentration of the trametinib added"}, {"measurement": "protein level of pERK in the brain", "setting": "pERK", "result": "considerably lower"}, {"measurement": "number of NeuN stained neurons, hippocampal subiculum", "setting": "5XFAD mouse [6]; [8]", "result": "significant increase in the number of neurons"}, {"measurement": "number of NeuN stained neurons, motor cortex layer 5", "setting": "5XFAD mouse [6]; [8]", "result": "significant increase in the number of neurons"}, {"measurement": "number of NeuN stained neurons, somatosensory cortex layer 5", "setting": "5XFAD mouse [6]; [8]", "result": "significant increase in the number of neurons stained with NeuN"}, {"measurement": "dose showing neural stem cell differentiation-inducing activity", "setting": "5XFAD mouse [6]; 5xFAD mouse experiments", "result": 0.1, "unit": "mg/kg/day"}]}
